According to PubChem BioAssay AID248 (DTP/NCI, 2004):
Toxic doses and inconclusive results are not listed. Cut-off read from the data, not from the text of the source: active = T/C of 150% or more; inactive = T/C below 125%.

Test system: L1210 leukemia ip in BDF1 mice, survival T/C
Test: NCI In Vivo Anticancer Drug Screen. Data for tumor model L1210 Leukemia (intraperitoneal) in B6D2F1 (BDF1) mice
Details: endpoint: mean survival time, higher = longer survival
How it was run: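 Mice bearing the transplanted tumor received compound or vehicle. Survival of the treated group was divided by that of the vehicle-treated control group to give the ratio.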

Measured: T/C

CCOC(=O)NNC(=S)NCc1ccccc1
inactive: dose: 100.0 mg/kg/injection, schedule: Q01DX009 (ip), vehicle: Klucel (hydroxypropylcellulose) (HPC) 102 % of control | dose: 200.0 mg/kg/injection, schedule: Q01DX009 (ip), vehicle: Klucel (hydroxypropylcellulose) (HPC) 98 % of control

C1CC2(CCN1)SSC1(CCNCC1)S2
inactive: dose: 100.0 mg/kg/injection, schedule: Q01DX009 (ip), vehicle: saline 113 % of control | dose: 100.0 mg/kg/injection, schedule: Q04DX003 (ip), vehicle: saline 114 % of control | dose: 200.0 mg/kg/injection, schedule: Q01DX009 (ip), vehicle: saline 103 % of control | dose: 200.0 mg/kg/injection, schedule: Q04DX003 (ip), vehicle: saline 112 % of control | dose: 400.0 mg/kg/injection, schedule: Q04DX003 (ip), vehicle: saline 96 % of control

O=c1[nH][nH]c(=S)c2[nH]c(=S)n(Cc3ccccc3)c12
inactive: dose: 100.0 mg/kg/injection, schedule: Q01DX001 (ip), vehicle: saline 90 % of control | dose: 200.0 mg/kg/injection, schedule: Q01DX001 (ip), vehicle: saline 93 % of control | dose: 400.0 mg/kg/injection, schedule: Q01DX001 (ip), vehicle: saline 90 % of control

CCCCCCCCCCCCCCCCS(=O)(=O)N/N=C/c1ccc(Cl)c([N+](=O)[O-])c1
inactive: dose: 100.0 mg/kg/injection, schedule: Q01DX001 (ip), vehicle: carboxymethylcellulose (CMC) 98 % of control | dose: 200.0 mg/kg/injection, schedule: Q01DX001 (ip), vehicle: carboxymethylcellulose (CMC) 107 % of control | dose: 400.0 mg/kg/injection, schedule: Q01DX001 (ip), vehicle: carboxymethylcellulose (CMC) 103 % of control
